Results published in patent US20240299481A1, “STEPHANIA CEPHARANTHA-DERIVED ALKALOID-CONTAINING PREPARATION” (JAPAN AS REPRESENTED BY DIRECTOR-GENERAL OF NATIONAL …, priority 2021, published 2024).

tested on: novel coronavirus mutant strain (alpha mutant strain); type: cell-based, SARS-COV-2

For `COc1cc2c3cc1Oc1c(OC)c(OC)cc4c1[C@@H](Cc1ccc(O)c(c1)Oc1ccc(cc1)C[C@@H]3N(C)CC2)N(C)CC4` [Berbamine], which “antiviral effect (number of viral RNA with increasing addition concentration)” value is on record?
The value was “showed antiviral effects”.

And the “antiviral effect compared with the preparation / other alkaloids” value?
The value was “weak antiviral effect”.

What does the source list for `COc1ccc2cc1Oc1ccc(cc1)C[C@H]1c3c(cc4c(c3Oc3cc5c(cc3OC)CCN(C)[C@@H]5C2)OCO4)CCN1C` [Cepharanthine]?
antiviral effect (number of viral RNA with increasing addition concentration): showed antiviral effects; antiviral effect compared with the preparation / other alkaloids: comparable to the Stephania cepharantha-derived alkaloid-containing preparation

For `COc1cc2c3c(c1OC)Oc1ccc(cc1)C[C@@H]1c4c(cc(OC)c(OC)c4Oc4ccc(cc4)C[C@H]3N(C)CC2)CCN1C` [Cycleanine], which “antiviral effect (number of viral RNA with increasing addition concentration)” value is on record?
The value was “showed antiviral effects”.

And the “antiviral effect compared with the preparation / other alkaloids” value?
Its value is “comparable to the Stephania cepharantha-derived alkaloid-containing preparation”.

`COc1ccc2cc1Oc1ccc(cc1)C[C@H]1c3cc(c(OC)cc3CCN1C)Oc1c(OC)c(OC)cc3c1[C@@H](C2)N(C)CC3` [Isotetrandrine] was tested. Which “antiviral effect (number of viral RNA with increasing addition concentration)” value did it give?
Its value is “showed antiviral effects”.

What about the “antiviral effect compared with the preparation / other alkaloids” value of the same compound?
The value was “comparable to the Stephania cepharantha-derived alkaloid-containing preparation”.
